According to patent US20100267561A1, “HERBICIDAL PYRIDAZINONE DERIVATIVES” (priority 2007, published 2010):

Experiments:
Experiment in all cases: Test B pre-/postemergence plant response
Type in all cases: in vivo
[1] = tested on: woolly cupgrass (Eriochloa villosa)
Summary of the method: (§1)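 Visual scoring from 0 (no effect) to 100 (complete control) against untreated controls was done 13 to 15 days after greenhouse treatment. Chemicals were formulated in a surfactant-containing non-phytotoxic solvent and applied to soil preemergence or to 1- to 4-leaf (2-18 cm) plants postemergence.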

corn (Zea mays) = tested on: corn (Zea mays)
Summary of the method: as §1

[2] = tested on: yellow nutsedge (Cyperus esculentus)
Summary of the method: as §1

[3] = tested on: blackgrass (Alopecurus myosuroides); conditions: for Blackgrass plant response rating: 8 g ai/ha
Summary of the method: as §1

[4] = tested on: common (oilseed) sunflower (Helianthus annuus); conditions: Preemergence; for Sunflower plant response rating: scale 0 to 100
Summary of the method: as §1

wild oat (Avena fatua) = tested on: wild oat (Avena fatua)
Summary of the method: as §1

[5] = tested on: surinam grass (Brachiaria decumbens)
Summary of the method: as §1

[6] = tested on: wheat (Triticum aestivum)
Summary of the method: as §1

[7] = tested on: Russian thistle (Salsola iberica); conditions: Preemergence; for Russian Thistle plant response rating: scale 0 to 100
Summary of the method: as §1

[8] = tested on: downy bromegrass (Bromus tectorum); conditions: for Bromegrass, Downy plant response rating: 8 g ai/ha
Summary of the method: as §1

[9] = tested on: cocklebur (Xanthium strumarium); conditions: for Cocklebur plant response rating: 8 g ai/ha
Summary of the method: as §1

[10] = tested on: green foxtail (Setaria viridis)
Summary of the method: as §1

[11] = tested on: eastern black (E.B.) nightshade (Solanum ptycanthum); conditions: Preemergence; for Nightshade, E. B. plant response rating: scale 0 to 100
Summary of the method: as §1

[12] = tested on: common ragweed (Ambrosia elation)
Summary of the method: as §1

[13] = 8 g ai/ha, postemergence, 0-100 scale
[14] = Postemergence, 16 g ai/ha, scale 0 to 100
[15] = Postemergence, 31 g ai/ha, scale 0 to 100
[16] = Postemergence, 62 g ai/ha, scale 0 to 100, 0 no effect, 100 complete control
[17] = Preemergence, 31 g ai/ha, scale 0 to 100 (0 no effect, 100 complete control)
[18] = Preemergence, 62 g ai/ha, 0 to 100 scale, 0 no effect, 100 complete control
[19] = Preemergence, 8 g ai/ha, scale 0 to 100
[20] = Preemergence, 16 g ai/ha, scale 0 to 100
[21] = 16 g ai/ha, postemergence, 0-100 scale
[22] = Preemergence, 16 g ai/ha, scale 0 to 100 (0 no effect, 100 complete control)
[23] = 31 g ai/ha, scale 0 to 100 (0 no effect, 100 complete control)
[24] = 62 g ai/ha, 0 to 100 scale, 0 no effect, 100 complete control

With `CCc1cc(-c2ccc(Br)cc2)nn1-c1c(O)c(C)nn(C)c1=O` [Compound 74] the “Cupgrass, Woolly plant response rating” value [1, 13] was 85, the “Plant response rating, Cupgrass, Woolly” value [1, 14] was 90 and the “Plant response rating, Cupgrass, Woolly” value [1, 15] was 90. For the same compound, the “Plant response rating, Cupgrass, Woolly” value [1, 16] was 98, the “Plant response rating, Cupgrass, Woolly” value [1, 17] was 98 and the “Plant response rating, Cupgrass, Woolly” value [1, 18] was 100. The “Cupgrass, Woolly plant response rating” value [1, 19] was 65, the “Cupgrass, Woolly plant response rating” value [1, 20] was 95 and the “Corn plant response rating” value (corn (Zea mays); [13]) was 98. The “Plant response rating, Corn” value (corn (Zea mays); [14]) was 100, the “Plant response rating, Corn” value (corn (Zea mays); [15]) was 100 and the “Plant response rating, Corn” value (corn (Zea mays); [16]) was 100. For the same compound, the “Plant response rating, Corn” value (corn (Zea mays); [17]) was 90, the “Plant response rating, Corn” value (corn (Zea mays); [18]) was 98 and the “Corn plant response rating” value (corn (Zea mays); [19]) was 75. For the same compound, the “Corn plant response rating” value (corn (Zea mays); [20]) was 80, the “Nutsedge, Yellow plant response rating” value [2, 13] was 0 and the “Nutsedge, Yellow plant response rating” value [2, 21] was 0. The “Plant response rating, Nutsedge, Yellow” value [2, 15] was 0, the “Plant response rating, Nutsedge, Yellow” value [2, 16] was 0 and the “Plant response rating, Nutsedge, Yellow” value [2, 17] was 0. The “Plant response rating, Nutsedge, Yellow” value [2, 18] was 0, the “Nutsedge, Yellow plant response rating” value [2, 19] was 0 and the “Nutsedge, Yellow plant response rating” value [2, 20] was 0. For the same compound, the “Blackgrass plant response rating” value ([3]; postemergence, 0-100 scale) was 90, the “Plant response rating, Blackgrass” value [3, 14] was 95 and the “Plant response rating, Blackgrass” value [3, 15] was 98. For the same compound, the “Plant response rating, Blackgrass” value [3, 16] was 100, the “Plant response rating, Blackgrass” value [3, 22] was 100 and the “Plant response rating, Blackgrass” value [3, 17] was 100. For the same compound, the “Plant response rating, Blackgrass” value [3, 18] was 100, the “Blackgrass plant response rating” value ([3]; Preemergence, scale 0 to 100) was 85 and the “Plant response rating, Sunflower” value [4, 23] was 0. The “Plant response rating, Sunflower” value [4, 24] was 0, the “Sunflower plant response rating” value ([4]; 8 g ai/ha) was 0 and the “Sunflower plant response rating” value ([4]; 16 g ai/ha) was 0. The “Oat, Wild plant response rating” value (wild oat (Avena fatua); [13]) was 98, the “Oat, Wild plant response rating” value (wild oat (Avena fatua); [21]) was 98 and the “Plant response rating, Oat, Wild” value (wild oat (Avena fatua); [15]) was 100. For the same compound, the “Plant response rating, Oat, Wild” value (wild oat (Avena fatua); [16]) was 100, the “Plant response rating, Oat, Wild” value (wild oat (Avena fatua); [17]) was 70 and the “Plant response rating, Oat, Wild” value (wild oat (Avena fatua); [18]) was 80. For the same compound, the “Oat, Wild plant response rating” value (wild oat (Avena fatua); [19]) was 50, the “Oat, Wild plant response rating” value (wild oat (Avena fatua); [20]) was 70 and the “Surinam Grass plant response rating” value [5, 13] was 85. For the same compound, the “Surinam Grass plant response rating” value [5, 21] was 100, the “Plant response rating, Surinam Grass” value [5, 15] was 100 and the “Plant response rating, Surinam Grass” value [5, 16] was 100. The “Plant response rating, Surinam Grass” value [5, 17] was 100, the “Plant response rating, Surinam Grass” value [5, 18] was 100 and the “Surinam Grass plant response rating” value [5, 19] was 100. For the same compound, the “Surinam Grass plant response rating” value [5, 20] was 100, the “Wheat plant response rating” value [6, 13] was 40 and the “Wheat plant response rating” value [6, 21] was 70. The “Plant response rating, Wheat” value [6, 15] was 90, the “Plant response rating, Wheat” value [6, 16] was 95 and the “Plant response rating, Wheat” value [6, 17] was 25. The “Plant response rating, Wheat” value [6, 18] was 85, the “Wheat plant response rating” value [6, 20] was 0 and the “Plant response rating, Russian Thistle” value [7, 23] was 0. For the same compound, the “Plant response rating, Russian Thistle” value [7, 24] was 0, the “Russian Thistle plant response rating” value ([7]; 8 g ai/ha) was 0 and the “Russian Thistle plant response rating” value ([7]; 16 g ai/ha) was 0. For the same compound, the “Bromegrass, Downy plant response rating” value ([8]; postemergence, 0-100 scale) was 10, the “Plant response rating, Bromegrass, Downy” value [8, 14] was 40 and the “Plant response rating, Bromegrass, Downy” value [8, 15] was 50. For the same compound, the “Plant response rating, Bromegrass, Downy” value [8, 16] was 60, the “Plant response rating, Bromegrass, Downy” value [8, 22] was 85 and the “Plant response rating, Bromegrass, Downy” value [8, 17] was 85. For the same compound, the “Plant response rating, Bromegrass, Downy” value [8, 18] was 85, the “Bromegrass, Downy plant response rating” value ([8]; Preemergence, scale 0 to 100) was 30 and the “Cocklebur plant response rating” value ([9]; postemergence, 0-100 scale) was 0. For the same compound, the “Plant response rating, Cocklebur” value [9, 14] was 0, the “Plant response rating, Cocklebur” value [9, 15] was 0 and the “Plant response rating, Cocklebur” value [9, 16] was 0. For the same compound, the “Plant response rating, Cocklebur” value [9, 22] was 0, the “Plant response rating, Cocklebur” value [9, 17] was 0 and the “Plant response rating, Cocklebur” value [9, 18] was 0. For the same compound, the “Cocklebur plant response rating” value ([9]; Preemergence, scale 0 to 100) was 0, the “Foxtail, Green plant response rating” value [10, 13] was 85 and the “Plant response rating, Foxtail, Green” value [10, 14] was 95. For the same compound, the “Plant response rating, Foxtail, Green” value [10, 15] was 98, the “Plant response rating, Foxtail, Green” value [10, 16] was 100 and the “Plant response rating, Foxtail, Green” value [10, 17] was 100. For the same compound, the “Plant response rating, Foxtail, Green” value [10, 18] was 100, the “Foxtail, Green plant response rating” value [10, 19] was 100 and the “Foxtail, Green plant response rating” value [10, 20] was 100. For the same compound, the “Plant response rating, Nightshade, E. B.” value [11, 23] was 0, the “Plant response rating, Nightshade, E. B.” value [11, 24] was 65 and the “Nightshade, E. B. plant response rating” value ([11]; 8 g ai/ha) was 0. The “Nightshade, E. B. plant response rating” value ([11]; 16 g ai/ha) was 0, the “Ragweed plant response rating” value [12, 13] was 0 and the “Ragweed plant response rating” value [12, 21] was 0. The “Plant response rating, Ragweed” value [12, 15] was 0, the “Plant response rating, Ragweed” value [12, 16] was 0 and the “Plant response rating, Ragweed” value [12, 17] was 0. The “Plant response rating, Ragweed” value [12, 18] was 0, the “Ragweed plant response rating” value [12, 19] was 0 and the “Ragweed plant response rating” value [12, 20] was 0.
